{"source": "patent EP0962138B1", "about": "“Pesticidal method” (BASF Agro B.V., Arnhem (NL), Wädenswil-Branch, priority 1998, dated 1999)", "key": {"Otiorynchus sulcatus": {"test_system": "Otiorynchus sulcatus", "test": "Compost incorporation test, protection of potted plants from weevil larvae (Example 1)", "assay_type": "in vivo", "settings": "Thuya plicata Atrovirens", "experimental": "In a twenty-replicate test, Compound A was incorporated in compost by mixing a 2% w/w granule with the compost (Klasmann Substrat 2 (Peat based) ) using a small mechanical mixer. Plants of Thuya plicata Atrovirens were potted in the compost and allowed to grow for two months and then about 15 eggs of Otiorynchus sulcatus were added to the soil and covered with a small layer of compost. As a comparison, some compost was untreated and other compost was treated with the standard chlorpyrifos in the form of the commercial product suSCon Green®. After 27 days the soil was reinfested with 15 more eggs. The plant pots were enclosed such that the plants were exposed to light and the adult beetles which emerged could not escape.\nOf the twenty replicates of each test, five were assessed after 6 months and fifteen were assessed after 18 months for numbers of larvae and adults. After 6 months the following results were observed: […]"}, "vine weevil": {"test_system": "vine weevil", "test": "Curative drench treatment of infested potted plants (Example 2)", "assay_type": "in vivo", "settings": "after 6 months, Fuchsia triphylla hybrid cv. Koralle", "experimental": "In 20-replicate tests, Fuchsia triphylla hybrid cv. Koralle was infested with 15 eggs per pot of vine weevil. Compound A in the form of an 80% water dispersible granule (Regent 800 WG) was suspended in water and added to each pot at the indicated rate per surface area of the pot at various dilutions. After 6 months, the trials were assessed. […] Drench Treatments"}, "[1]": {"settings": "Dose 75 g/m^3 in compost (suSCon Green), after 6 months, five replicates"}, "[2]": {"settings": "Dose 75 g/m^3 in compost (suSCon Green), after 18 months, fifteen replicates"}, "[3]": {"settings": "Dose 2.5 g/m^3 in compost, after 6 months, five replicates"}, "[4]": {"settings": "Dose 2.5 g/m^3 in compost, after 18 months, fifteen replicates"}, "[5]": {"settings": "Dose 5 g/m^3 in compost, after 6 months, five replicates"}, "[6]": {"settings": "Dose 5 g/m^3 in compost, after 18 months, fifteen replicates"}, "[7]": {"settings": "Dose 7.5 g/m^3 in compost, after 6 months, five replicates"}, "[8]": {"settings": "Dose 7.5 g/m^3 in compost, after 18 months, fifteen replicates"}, "[9]": {"settings": "Dose 15 g/m^3 in compost, after 6 months, five replicates"}, "[10]": {"settings": "Dose 15 g/m^3 in compost, after 18 months, fifteen replicates"}}, "data": [{"smiles": "CCOP(=S)(OCC)Oc1nc(Cl)c(Cl)cc1Cl", "note": "[Chlorpyrifos, chlorpyrifos, reference compound]", "values": [{"measurement": "% Control", "setting": "Otiorynchus sulcatus; [1]", "result": 87, "unit": "%"}, {"measurement": "Number per pot", "setting": "Otiorynchus sulcatus; [1]", "result": 0.8}, {"measurement": "Total # larvae", "setting": "Otiorynchus sulcatus; [1]", "result": 4}, {"measurement": "% Control", "setting": "Otiorynchus sulcatus; [2]", "result": 0, "unit": "%"}, {"measurement": "% Survival of Plants", "setting": "Otiorynchus sulcatus; [2]", "result": 100, "unit": "%"}, {"measurement": "Number per pot", "setting": "Otiorynchus sulcatus; [2]", "result": 3.1}, {"measurement": "Total # larvae", "setting": "Otiorynchus sulcatus; [2]", "result": 47}, {"measurement": "Total Dead Plants", "setting": "Otiorynchus sulcatus; [2]", "result": 0}]}, {"smiles": "N#Cc1nn(-c2c(Cl)cc(C(F)(F)F)cc2Cl)c(N)c1[S+]([O-])C(F)(F)F", "note": "(centres unmarked) [Compound A, 5-amino-1-(2,6-dichloro 4-trifluoromethylphenyl) 4-trifluoromethylsulfinyl-3-cyanopyrazole]", "values": [{"measurement": "% Control", "setting": "Otiorynchus sulcatus; [3]", "result": 100, "unit": "%"}, {"measurement": "Number per pot", "setting": "Otiorynchus sulcatus; [3]", "result": 0}, {"measurement": "Total # larvae", "setting": "Otiorynchus sulcatus; [3]", "result": 0}, {"measurement": "% Control", "setting": "Otiorynchus sulcatus; [4]", "result": 100, "unit": "%"}, {"measurement": "% Survival of Plants", "setting": "Otiorynchus sulcatus; [4]", "result": 100, "unit": "%"}, {"measurement": "Number per pot", "setting": "Otiorynchus sulcatus; [4]", "result": 0}, {"measurement": "Total # larvae", "setting": "Otiorynchus sulcatus; [4]", "result": 0}, {"measurement": "Total Dead Plants", "setting": "Otiorynchus sulcatus; [4]", "result": 0}, {"measurement": "% Control", "setting": "Otiorynchus sulcatus; [5]", "result": 100, "unit": "%"}, {"measurement": "Number per pot", "setting": "Otiorynchus sulcatus; [5]", "result": 0}, {"measurement": "Total # larvae", "setting": "Otiorynchus sulcatus; [5]", "result": 0}, {"measurement": "% Control", "setting": "Otiorynchus sulcatus; [6]", "result": 100, "unit": "%"}, {"measurement": "% Survival of Plants", "setting": "Otiorynchus sulcatus; [6]", "result": 100, "unit": "%"}, {"measurement": "Number per pot", "setting": "Otiorynchus sulcatus; [6]", "result": 0}, {"measurement": "Total # larvae", "setting": "Otiorynchus sulcatus; [6]", "result": 0}, {"measurement": "Total Dead Plants", "setting": "Otiorynchus sulcatus; [6]", "result": 0}, {"measurement": "% Control", "setting": "Otiorynchus sulcatus; [7]", "result": 100, "unit": "%"}, {"measurement": "Number per pot", "setting": "Otiorynchus sulcatus; [7]", "result": 0}, {"measurement": "Total # larvae", "setting": "Otiorynchus sulcatus; [7]", "result": 0}, {"measurement": "% Control", "setting": "Otiorynchus sulcatus; [8]", "result": 100, "unit": "%"}, {"measurement": "% Survival of Plants", "setting": "Otiorynchus sulcatus; [8]", "result": 100, "unit": "%"}, {"measurement": "Number per pot", "setting": "Otiorynchus sulcatus; [8]", "result": 0}, {"measurement": "Total # larvae", "setting": "Otiorynchus sulcatus; [8]", "result": 0}, {"measurement": "Total Dead Plants", "setting": "Otiorynchus sulcatus; [8]", "result": 0}, {"measurement": "% Control", "setting": "Otiorynchus sulcatus; [9]", "result": 100, "unit": "%"}, {"measurement": "Number per pot", "setting": "Otiorynchus sulcatus; [9]", "result": 0}, {"measurement": "Total # larvae", "setting": "Otiorynchus sulcatus; [9]", "result": 0}, {"measurement": "% Control", "setting": "Otiorynchus sulcatus; [10]", "result": 100, "unit": "%"}, {"measurement": "% Survival of Plants", "setting": "Otiorynchus sulcatus; [10]", "result": 100, "unit": "%"}, {"measurement": "Number per pot", "setting": "Otiorynchus sulcatus; [10]", "result": 0}, {"measurement": "Total # larvae", "setting": "Otiorynchus sulcatus; [10]", "result": 0}, {"measurement": "Total Dead Plants", "setting": "Otiorynchus sulcatus; [10]", "result": 0}, {"measurement": "Protection of the plants compared with the commercial standard", "setting": "vine weevil", "result": "protected the plants substantially better than the commercial standard fonofos"}]}]}
